Results: patent US8394355B2, “Use of UTP for the diagnosis of stenoses and other conditions of restricted blood flow” (P2 science Aps, priority 2009, dated 2013)
Read-outs that look alike come from different tables or passages of the source.

Key:
[1] = Kinetics of UTP in the circulation; format: in vivo; details: for half-life: in the circulation, read-out: terminal half-life (converted)
[2] = test system: infarct area during acute myocardial infarction; assay: ADP or UTP infusion during myocardial infarction in pigs (unpublished); format: in vivo; details: infused during acute myocardial infarction, unpublished results
Source text: This is clearly in contrast to previous findings, but is more clinically relevant as most cardiac patients are older. […] This conclusion is also supported by another study by the present inventor in pigs where ADP or UTP was infused during myocardial infarction. […] Therefore, the previous assumptions in patent application WO 2007/065437 relating to the regulation of purinergic receptor activity to modulate vascular tone, particularly for treating hemodynamic conditions by overriding vasoconstriction activity, which could potentially have clinical applications for treatment with UTP agonists or antagonists, is incorrect.

[3] = test system: leg blood flow; details: cited from earlier work; for relative vasoactive potency (rank order): only for blood flows around 3.5 Lmin^−1

Compound	half-life ([1]; blood (the circulation)) [s]	time to peak ([1]; in vivo) [s]	half-life ([1]; in vivo) [s]	effect on infarct area [2]	blood flow increase, % of maximum in the leg during hard exercise ([3]; local infusion) [%]	relative vasoactive potency (rank order) [3]
O=c1ccn([C@@H]2O[C@H](COP(=O)(O)OP(=O)(O)OP(=O)(O)O)C(O)[C@@H]2O)c(=O)[nH]1 (stereo partly shown) [UTP, Uridine 5-triphosphate]	~20	5	20	increased the infarct area	60	100
Nc1ncnc2c1ncn2[C@@H]1O[C@H](CO)[C@@H](O)[C@H]1O [adenosine]						5.8
